Where two headings read alike, the source gives them in different places.
Assay: Beagle PK evaluation experiment
Type: in vivo
Conditions: dog, plasma; for AUC(0-t) / clearance / Vd / half-life / Tmax: dose 1 mg/kg; for clearance: n=3, read-out: Cl_obs iv (clearance rate) (converted); for Vd: n=3, read-out: Vz_obs iv (apparent volume of distribution); for bioavailability: iv/po dose 1/1 mg/kg, n=3, read-out: F % (absolute bioavailability); for Tmax: n=3, median, read-out: Tmax po (time to maximum plasma concentration)
Experimental: Test samples: the compounds of the present invention, prepared according to exemplary methods.
Administration and Sample Collection:
Experimental compounds 11, 12 and 35 were each dissolved in a mixture of 5% DMSO+20% (30% Solutol)+75% saline to prepare solutions. The compound solutions were administrated via intragastric gavage to beagles at a dose of 1.0 mg/kg, respectively. The blood was collected at time points of 0 min, 15 min, 30 min, 1 h, 2 h, 4 h, 6 h, 8 h, 10 h and 24 h.
(§1) Experimental compounds 11, 12 and 35 were each dissolved in a mixture of 5% DMSO+20% (30% Solutol)+75% saline to prepare solutions. The compound solutions were intravenously injected into beagles at a dose of 1.0 mg/kg, respectively. The blood was collected at time points of 0 min, 5 min, 15 min, 30 min, 1 h, 2 h, 4 h, 6 h, 8 h, 10 h and 24 h. […]
as §1, with “compound 17” for “compounds 11, 12”, “compound 37” for “35”, “PEG400+75% (20% Captisol in Water)” for “(30% Solutol)+75% saline”
Experimental compound 18 was dissolved in a mixture of 5% DMA+30% PEG400+65% (20% Captisol in Saline) to prepare a solution. The compound solution was intravenously injected into a beagle at a dose of 1.0 mg/kg. The blood was collected at time points of 0 min, 5 min, 15 min, 30 min, 1 h, 2 h, 4 h, 6 h, 8 h, 10 h and 24 h.
About 1 mL of blood was collected via the upper extremity, and the collected blood was placed in an anticoagulation tube containing EDTA-K2. The blood samples were centrifuged at 1800 g for 5 min at 4° C. to give plasma samples which were prepared within 30 min after blood collection. The plasma samples were stored in a refrigerator at −80° C. before test.
The samples to be tested were taken out from the refrigerator at −80° C., and vortexed for 5 min after naturally thawed at room temperature. 20 μL of plasma samples were each pipetted into a 1.5 mL centrifuge tube, and 200 μL of internal standard working solution (a solution of tolbutamide in methanol) at 100 ng/mL was added. The resulting mixture was mixed well, vortexed for 5 min, and then centrifuged at 12,000 rpm for 5 min. 50 μL of the supernatant was pipetted into a 96-well plate with 150 μL of water per well, and the plate was vortexed for 5 min and mixed well before LC-MS/MS analysis.
The concentrations of test samples were calculated by Analyst 1.6.3 from AB Sciex. Parameters such as mean, standard deviation and coefficient of variation (excluding those output directly by Analyst 1.6.3) were calculated by Microsoft Excel. PK parameters were calculated by Pharsight Phoenix 6.1 software NCA (Tmax was in median).

[1] = iv, n=3, read-out: AUClast iv (area under concentration-time curve for 0-24 h)
[2] = iv, n=3, read-out: tz1/2 iv (terminal half-life) (converted)
[3] = po (gavage), n=3, read-out: AUClast po (area under concentration-time curve for 0-24 h)
[4] = po (gavage), n=3, read-out: tz1/2 po (terminal half-life) (converted)

| SMILES | AUC(0-t) [1] [ng·h/mL] | clearance (iv) [mL/min/kg] | Vd (iv) [L/kg] | half-life [2] [h] | bioavailability [%] | Tmax (po (gavage)) [h] | AUC(0-t) [3] [ng·h/mL] | half-life [4] [h] |
| --- | --- | --- | --- | --- | --- | --- | --- | --- |
| CC(C)n1cc(-c2ccc(F)cc2)c(=O)c(C(=O)Nc2ccc(Oc3ccnc(N)c3Cl)cn2)n1 [Compound 11, N-(5-((2-amino-3-chloropyridin-4-yl)oxy)pyridin-2-yl)-5-(4-fluorophenyl)-1-isopropyl-4-oxo-1,4-dihydropyridazine-3-carboxamide] | 3320 | 4.33 | 5.36 | 15 | 37.3 | 1 | 1360 | 5.97 |
| CC(C)n1cc(-c2ccc(F)cc2)c(=O)c(C(=O)Nc2ncc(Oc3ccnc(N)c3Cl)cn2)n1 [Compound 12, N-(5-((2-amino-3-chloropyridin-4-yl)oxy)pyrimidin-2-yl)-5-(4-fluorophenyl)-1-isopropyl-4-oxo-1,4-dihydropyridazine-3-carboxamide] | 1530 | 10.8 | 1.04 | 1.1 | 78 | 0.5 | 1190 | 1.24 |
| Nc1nccc(Oc2ccc(NC(=O)c3nn(C4CC4)cc(-c4ccc(F)cc4)c3=O)nc2)c1Cl [Compound 17, N-(5-((2-amino-3-chloropyridin-4-yl)oxy)pyridin-2-yl)-1-cyclopropyl-5-(4-fluorophenyl)-4-oxo-1,4-dihydropyridazine-3-carboxamide] | 3360 | 5 | 3.16 | 7.46 | 109 | 1 | 3670 | 13.6 |
| Nc1nccc(Oc2cnc(NC(=O)c3nn(C4CC4)cc(-c4ccc(F)cc4)c3=O)nc2)c1Cl [Compound 18, N-(5-((2-amino-3-chloropyridin-4-yl)oxy)pyrimidin-2-yl)-5-(4-fluorophenyl)-1-cyclopropyl-4-oxo-1,4-dihydropyridazine-3-carboxamide] | 3730 | 4.83 | 0.65 | 1.54 | 29.7 | 1 | 1090 | 2 |

Second part, the compound after the results:

| AUC(0-t) [1] [ng·h/mL] | clearance (iv) [mL/min/kg] | Vd (iv) [L/kg] | half-life [2] [h] | bioavailability [%] | Tmax (po (gavage)) [h] | AUC(0-t) [3] [ng·h/mL] | half-life [4] [h] | SMILES |
| --- | --- | --- | --- | --- | --- | --- | --- | --- |
| 4120 | 3.83 | 3.16 | 9.32 | 50.7 | 1 | 2200 | 4.01 | C=CCn1cc(-c2ccc(F)cc2)c(=O)c(C(=O)Nc2ccc(Oc3ccnc(N)c3Cl)cn2)n1 [Compound 35, 1-allyl-N-(5-((2-amino-3-chloropyridin-4-yl)oxy)pyridin-2-yl)-5-(4-fluorophenyl)-4-oxo-1,4-dihydropyridazine-3-carboxamide] |
| 2600 | 6.83 | 1.07 | 1.79 | 70.6 | 0.5 | 1830 | 1.88 | C=CCn1cc(-c2ccc(F)cc2)c(=O)c(C(=O)Nc2ncc(Oc3ccnc(N)c3Cl)cn2)n1 [Compound 37] |

Reference: US20220298146A1, “HETEROCYCLIC DERIVATIVE AND USE THEREOF” (Transthera Sciences (Nanjing), Inc., priority 2019, published 2022)
